Experimental data published in article PMC5748279, “Novel Antitubercular 6-Dialkylaminopyrimidine Carboxamides from Phenotypic Whole-Cell High Throughput Screening of a SoftFocus Library: Structure–Activity Relationship and Target Identification Studies” (Journal of Medicinal Chemistry, 2017).
In brackets after ≈: the same amount, converted by molar mass. Read-outs that look alike come from different tables or passages of the source.

Legend:
BCG_3193 (Rv3169) = BCG_3193 (Rv3169) (Mycobacterium bovis BCG, UniProt A0A1R3Y3B6); test: biochemical; format: binding
[1] = molecular target: Mycobacterium bovis BCG extract proteins (Mycobacterium bovis BCG, UniProt A0A1R3Y5N8); test: biochemical; format: binding
[2] = molecular target: Mycobacterium bovis BCG extract proteins (Mycobacterium bovis, UniProt A0A1R3Y5J0); test: biochemical; format: binding
[3] = molecular target: Mycobacterium bovis BCG extract proteins (Mycobacterium bovis BCG, UniProt A0A1R3Y5J1); test: biochemical; format: binding
[4] = tested on: Mycobacterium bovis BCG extract proteins; test: biochemical; format: binding
[5] = molecular target: Mycobacterium bovis BCG extract proteins (Mycobacterium bovis BCG, UniProt A0A0H3M9Z0); test: biochemical; format: binding
[6] = molecular target: Mycobacterium bovis BCG extract proteins (Mycobacterium bovis BCG, UniProt O69687); test: biochemical; format: binding
[7] = molecular target: Mycobacterium bovis BCG extract proteins (Mycobacterium bovis BCG, UniProt A1KLS7); test: biochemical; format: binding
[8] = molecular target: Mycobacterium bovis BCG extract proteins (Mycobacterium bovis BCG, UniProt P9WGQ7); test: biochemical; format: binding
[9] = molecular target: Mycobacterium bovis BCG extract proteins (Mycobacterium bovis BCG, UniProt A0A1R3Y6U4); test: biochemical; format: binding
[10] = molecular target: Mycobacterium bovis BCG extract proteins (Mycobacterium bovis BCG, UniProt P0A4Z9); test: biochemical; format: binding
[11] = molecular target: Mycobacterium bovis BCG extract proteins (Mycobacterium bovis BCG, UniProt A1KQG9); test: biochemical; format: binding
[12] = molecular target: Mycobacterium bovis BCG extract proteins (Mycobacterium bovis BCG, UniProt A0A1R3Y5H4); test: biochemical; format: binding
[13] = molecular target: Mycobacterium bovis BCG extract proteins (Mycobacterium bovis BCG, UniProt P9WKC7); test: biochemical; format: binding
[14] = molecular target: Mycobacterium bovis BCG extract proteins (Mycobacterium bovis BCG, UniProt A0A1R3Y5K6); test: biochemical; format: binding
BCG_3827 (Rv3768) = format: binding, Mycobacterium bovis BCG
in vitro = conditions: african green monkey; sheet table;; IC50 on Vero cells, MTT; read-out: Cytotoxicity (æM)
Protocol: chemosensitivity. […]. Thus only viable cells
formazan. Formazan crystals are dissolved in DMSO. The test samples were tested in triplicate on
experiment. […] Emetine was used
as the reference drug in all experiments. The initial concentration of emetine was 100 µg/mL,
lowest being 0.001 µg/mL. […] The
the cell viability (data not shown).
GraphPad Prism v.4 software.
Electrophysiologi Table 2 SAR on the Central Core a Kinetic solubility at pH 7.4. b IC50 on Vero cell lines.

[15] = tested on: Mycobacterium tuberculosis (H37RvMa); test: microbe, parasite or virus in culture; set-up: MIC99 by standard broth microdilution against M. tuberculosis H37Rv; conditions: sheet table;, MIC99, GAST/Fe medium, read-out: MIC99 GAST/Fe (æM)
physchem = conditions: sheet table;; kinetic solubility, pH 7.4; aqueous buffer pH 7.4; Kinetic solubility at pH 7.4; read-out: Solubility (æM)
Protocol: The kinetic solubility assay was performed using a miniaturised shake flask method. 10 mM stock […]
DMSO, and to spike (1:50) duplicate aqueous samples of FaSSIF (simulating fasting state biorelevant media, pH 6.5), with a final DMSO concentration of 2%. After shaking for 2 hours at 25 °C, the solutions were filtered and analysed by means of HPLC,DAD (Agilent 1200 Rapid Resolution HPLC with a diode array detector). Best fit calibration curves were constructed using the calibration standards, which were used to determine the aqueous samples’ solubility.13
4.2) Microsomal stability
The metabolic stability assay was performed in duplicate in a 96,well micro titre plate. The test compounds (0.1 µM) were incubated individually in mouse, rat and pooled human liver […]
the cofactor NADPH (1 mM). Reactions were quenched by adding 300 µL of ice cold acetonitrile containing internal standard (carbamazepine, 0.0236 µg/mL). Test compounds in the supernatant were analysed by means of LC,MS/MS (Agilent Rapid Resolution HPLC, AB SCIEX 4000 QTRAP MS) for the disappearance of parent compound. Metabolite searches were not conducted during the metabolic stability assay.14
4.3) Plasma protein binding (PPB) assay
The plasma protein binding assay was performed in a 96,well micro titre plate with pooled human plasma, spiked with test compound (5 µM). […]

[16] = tested on: Mycobacterium tuberculosis (H37RvMa); test: microbe, parasite or virus in culture; set-up: MIC99 by standard broth microdilution against M. tuberculosis H37Rv; conditions: read-out: MIC99 7H9/ADC (æM)

**Q.** With O=C(Nc1ccccc1)c1ccc(=O)n(Cc2ccc(F)cc2)c1 [Compound 25, 1-(4-Fluorobenzyl)-6-oxo-N-phenyl-1,6-dihydropyridine-3-carboxamide] as the molecule, how does the “binding of BCG_3193 to the compound beads in presence of free compound” value (BCG_3193 (Rv3169)) read?
**A.** no effect

**Q.** And the IC50 ([1]; IC50)?
**A.** ≥ 30 µM

**Q.** And the IC50 ([1]; pIC50)?
**A.** ≥ 30.2 µM

**Q.** And the IC50 ([2]; IC50)?
**A.** ≥ 30 µM

**Q.** And the IC50 ([2]; pIC50)?
**A.** ≥ 30.2 µM

**Q.** And the IC50 [3]?
**A.** ≥ 30 µM

**Q.** And the pIC50 [3]?
**A.** ≤ 4.52

**Q.** What about the IC50 [4] of the same molecule?
**A.** ≥ 30 µM

**Q.** What about the pIC50 [4] of the same molecule?
**A.** ≤ 4.52

**Q.** What about the IC50 [5] of the same molecule?
**A.** ≥ 30 µM

**Q.** And the pIC50 [5]?
**A.** ≤ 4.52

**Q.** What about the IC50 [6] of the same molecule?
**A.** ≥ 30 µM

**Q.** And the pIC50 [6]?
**A.** ≤ 4.52

**Q.** What about the IC50 [7] of the same molecule?
**A.** ≥ 30 µM

**Q.** And the pIC50 [7]?
**A.** ≤ 4.52

**Q.** What about the IC50 ([8]; IC50) of the same molecule?
**A.** ≥ 30 µM

**Q.** And the IC50 ([8]; pIC50)?
**A.** ≥ 30.2 µM

**Q.** What about the IC50 ([9]; IC50) of the same molecule?
**A.** ≥ 30 µM

**Q.** And the IC50 ([9]; pIC50)?
**A.** ≥ 30.2 µM

**Q.** And the IC50 [10]?
**A.** ≥ 30 µM

**Q.** And the pIC50 [10]?
**A.** ≤ 4.52

**Q.** What about the IC50 [11] of the same molecule?
**A.** ≥ 30 µM

**Q.** And the pIC50 [11]?
**A.** ≤ 4.52

**Q.** And the IC50 [12]?
**A.** ≥ 30 µM

**Q.** And the pIC50 [12]?
**A.** ≤ 4.52

**Q.** And the IC50 ([13]; IC50)?
**A.** ≥ 30 µM

**Q.** And the IC50 ([13]; pIC50)?
**A.** ≥ 30.2 µM

**Q.** What about the IC50 ([14]; IC50) of the same molecule?
**A.** ≥ 30 µM

**Q.** And the IC50 ([14]; pIC50)?
**A.** ≥ 30.2 µM

**Q.** And the IC50 (BCG_3827 (Rv3768))?
**A.** ≥ 30 µM

**Q.** And the “binding of BCG_3827 to the compound beads in presence of free compound” value (BCG_3827 (Rv3768))?
**A.** no effect

**Q.** And the pIC50 (BCG_3827 (Rv3768))?
**A.** ≤ 4.52

**Q.** What about the “relative abundance 10: Compound competition 0.029 µM 25” value (BCG_3827 (Rv3768); 0.029 µM) of the same molecule?
**A.** 1.06

**Q.** What about the “relative abundance 9: Compound competition 0.117 µM 25” value (BCG_3827 (Rv3768); 0.117 µM) of the same molecule?
**A.** 0.70

**Q.** What about the “relative abundance 8: Compound competition 0.47 µM 25” value (BCG_3827 (Rv3768); 0.47 µM) of the same molecule?
**A.** 1.39

**Q.** And the “relative abundance 7: Compound competition 1.88 µM 25” value (BCG_3827 (Rv3768); 1.88 µM)?
**A.** 1.36

**Q.** What about the “relative abundance 6: Compound competition 7.5 µM 25” value (BCG_3827 (Rv3768); 7.5 µM) of the same molecule?
**A.** 1.52

**Q.** What about the “relative abundance 5: Compound competition 30 µM 25” value (BCG_3827 (Rv3768); 30 µM) of the same molecule?
**A.** 1.12

**Q.** Which CC50 (in vitro) does the source give for CC(=O)N1CCN(c2ccc(NC(=O)c3cc(N(C)Cc4ccc(C(F)(F)F)nc4)ncn3)cn2)CC1 [compound 44] here?
**A.** > 50 µM

**Q.** What about the MIC99 [15] of the same molecule?
**A.** 2.3 µM (≈ 1.18 µg/mL)

**Q.** What about the solubility at 2 h (physchem) of the same molecule?
**A.** < 5 µM

**Q.** And the MIC99 [16]?
**A.** 4.7 µM (≈ 2.42 µg/mL)
